In patent US11697852B2, “Systems and methods for determining a treatment course of action” (The Regents of the University of Michigan, priority 2013, dated 2023):
“Also recorded” adds a separate entry of the source.

Experiments:
[1] = system: ESR1 mutations p.Leu536Gln, p.Tyr537Ser, p.Asp538Gly, p.Tyr537Cys, p.Tyr537Asn; assay: ERE-luciferase reporter assay, ESR1 LBD mutants; type: cell-based, human; settings: for inhibition of the 5 LBD mutations of ESR1 (reporter activity): ERE-luciferase, increasing doses with 5 nM β-estradiol for 24 hrs (FIG. 4)
Experimental: (§1) cDNA for the wild type ESR1 was PCR amplified from a breast cell line MCF7 with the introduction of an N-terminal FLAG tag. cDNA encoding the relevant mutations of ESR1 were generated by site-directed mutagenesis (QuikChange, Agilent) and full-length constructs were fully sequenced. All the ESR1 variants were placed in the Lentivial vector pCDH (System Biosciences) for eukaryotic expression.
(§2) For cell transfection experiments, HEK-293T cells were plated at a density of 1−2×10^5 per well (24-well plates) in phenol red-free Dulbecco's modified Eagle's medium (DMEM) containing 10% fetal bovine serum (FBS) and antibiotics. Once cells attached, replaced medium with DMEM containing 10% charcoal-dextran treated FBS (HyClone) and cultured overnight. The next day, cells were transiently co-transfected with ESR1-expression plasmid at 50 ng/well and luciferase reporter constructs at 25 ng per well (SABiosciences) using the FuGene 6 reagent (Promega). The ER-responsive luciferase plasmid encoding the firefly luciferase reporter gene is driven by a minimal CMV promoter and tandem repeats of the estrogen transcriptional response element (ERE). A second plasmid constitutively expressing Renilla luciferase is served as an internal control for normalizing transfection efficiencies (Cignal ERE Reporter, SABiosciences). After transfection for 18 hrs, cells were serum-starved for a few hours before treatment with 13-estradiol or anti-estrogen drugs. Cells were harvested 18 hr post-treatment, and luciferase activity was measured using the Dual-Luciferase Reporter Assay System (Promega). IC50 values were computed using the GraphPad Prizm application to fit a four parameter doseresponse curve.
It was next assessed whether tumor types other than ER positive metastatic hormone-resistant breast cancer also acquire ligand binding mutations in ESR1. The Cancer Genome Atlas Project (TCGA), which has generated whole exome data on 27 tumor types across at least 4000 individual samples was utilized. […] Steroid hormone deprived cells were then exposed to β-estradiol for 24 hours and ER reporter levels assessed.

wild type ESR1 = target: T1, wild type ESR1 (Homo sapiens, UniProt P03372); assay: ERE-luciferase reporter assay, wild type ESR1; type: cell-based; settings: HEK-293T cells co-transfected with ESR1 plasmid 50 ng and ERE-luciferase; in presence of β-estradiol (FIGS. 4, 8, 9, 10)
T1 construct: expressed in transfected cells; host or cells: HEK-293T
T1 sequence (P03372 1-595): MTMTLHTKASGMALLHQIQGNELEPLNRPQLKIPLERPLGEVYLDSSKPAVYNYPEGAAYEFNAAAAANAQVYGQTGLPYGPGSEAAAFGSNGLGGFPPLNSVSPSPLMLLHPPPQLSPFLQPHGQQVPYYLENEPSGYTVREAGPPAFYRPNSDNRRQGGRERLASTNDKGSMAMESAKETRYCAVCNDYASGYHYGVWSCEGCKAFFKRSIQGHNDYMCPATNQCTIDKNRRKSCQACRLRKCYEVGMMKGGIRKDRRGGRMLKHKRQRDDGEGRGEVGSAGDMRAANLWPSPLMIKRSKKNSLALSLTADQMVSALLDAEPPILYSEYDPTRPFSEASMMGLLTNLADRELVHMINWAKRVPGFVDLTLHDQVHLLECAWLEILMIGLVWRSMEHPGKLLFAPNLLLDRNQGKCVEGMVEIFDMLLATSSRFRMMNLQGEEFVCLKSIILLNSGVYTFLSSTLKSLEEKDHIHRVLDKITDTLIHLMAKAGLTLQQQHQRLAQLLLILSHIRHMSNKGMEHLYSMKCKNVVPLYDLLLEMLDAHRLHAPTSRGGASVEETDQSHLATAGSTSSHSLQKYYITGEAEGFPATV
Description: as §1
as §2, with “Once” for “For cell transfection experiments, HEK-293T cells were plated at a density of 1−2×10^5 per well (24-well plates) in phenol red-free Dulbecco's modified Eagle's medium (DMEM) containing 10% fetal bovine serum (FBS) and antibiotics. Once”, “IC50 values were computed using the GraphPad Prizm application to fit a four parameter doseresponse curve.” left out

Compound	maximal inhibition for all the mutants tested ([1]; ERE-luciferase dose response in competition with 1 nM estradiol (FIGS. 8 and 9))	inhibition of the 5 LBD mutations of ESR1 (reporter activity) [1]	inhibition of wild-type ER reporter (transactivation) activity (wild type ESR1)
C[C@]12CC[C@@H]3c4ccc(O)cc4C[C@@H](CCCCCCCCC[S+]([O-])CCCC(F)(F)C(F)(F)F)[C@H]3[C@@H]1CC[C@@H]2O (stereo partly shown) [fulvestrant, Fulvestrant]	greater maximal inhibition than 4-hydroxytamoxifen	in a dose-dependent fashion; also recorded: continue to be responsive	–
CC/C(=C(\c1ccccc1)c1ccc(OCCN(C)C)cc1)c1ccccc1 [tamoxifen]	–	in a dose-dependent fashion; also recorded: continue to be responsive	–
(Z)-4-Hydroxytamoxifen	–	–	inhibited in a dose-dependent fashion
